Measurements published in the NIST ThermoML archive (doi:10.1016/j.jct.2016.03.016).

Assay: mn = molality of the nth substance listed, in mol/kg
Settings: 100 kPa, Liquid; for speed of sound: Frequency=3 MHz, Sing-around technique in a fixed-path interferometer; for mass density: Vibrating tube method

CC(C)Cc1ccc(C(C)C(=O)[O-])cc1.[Na+] (stereo not given) [sodium ibuprofen] + O
Settings | mass density, 288.15 K [kg/m3] | mass density, 293.15 K [kg/m3] | mass density, 298.15 K [kg/m3] | mass density, 303.15 K [kg/m3] | mass density, 308.15 K [kg/m3] | speed of sound, 288.15 K [m/s] | speed of sound, 293.15 K [m/s] | speed of sound, 298.15 K [m/s] | speed of sound, 303.15 K [m/s] | speed of sound, 308.15 K [m/s]
m1 = 0.05 | 1003.2 | 1002.24 | 1001.03 | 999.585 | 997.921 | 1477.5 | 1492.8 | 1506 | 1517.7 | 1527.8
m1 = 0.15 | 1007.46 | 1006.39 | 1005.07 | 1003.52 | 1001.77 | 1496.9 | 1510.7 | 1522.9 | 1533.4 | 1542.4
m1 = 0.25 | 1010.79 | 1009.6 | 1008.17 | 1006.53 | 1004.69 | 1510.2 | 1522.3 | 1533.1 | 1542.4 | 1550.3
m1 = 0.35 | 1015.17 | 1013.83 | 1012.29 | 1010.55 | 1008.62 | 1518.1 | 1529.1 | 1538.9 | 1547.4 | 1554.5
